# According to patent US8598132B2, “Glycosylated indolocarbazoles, method for obtaining same and uses thereof” (Universidad de Oviedo, priority 2008, dated 2013):
# Columns and labels:
# Format in all cases: biochemical
# Conditions in all cases: read-out: remaining kinase activity (in %) / percentage of inhibition; for inhibition at 0.01 µM: compound at 10 nM; for inhibition at 0.1 µM: compound at 100 nM
# AmpKa1 = target: T1, AmpKa1 (Homo sapiens, UniProt Q13131); experiment: LabChip (Caliper) kinase assay, AmpKa1
# T1 construct: purchased Carna Biosciences
# T1 sequence (Q13131 whole entry): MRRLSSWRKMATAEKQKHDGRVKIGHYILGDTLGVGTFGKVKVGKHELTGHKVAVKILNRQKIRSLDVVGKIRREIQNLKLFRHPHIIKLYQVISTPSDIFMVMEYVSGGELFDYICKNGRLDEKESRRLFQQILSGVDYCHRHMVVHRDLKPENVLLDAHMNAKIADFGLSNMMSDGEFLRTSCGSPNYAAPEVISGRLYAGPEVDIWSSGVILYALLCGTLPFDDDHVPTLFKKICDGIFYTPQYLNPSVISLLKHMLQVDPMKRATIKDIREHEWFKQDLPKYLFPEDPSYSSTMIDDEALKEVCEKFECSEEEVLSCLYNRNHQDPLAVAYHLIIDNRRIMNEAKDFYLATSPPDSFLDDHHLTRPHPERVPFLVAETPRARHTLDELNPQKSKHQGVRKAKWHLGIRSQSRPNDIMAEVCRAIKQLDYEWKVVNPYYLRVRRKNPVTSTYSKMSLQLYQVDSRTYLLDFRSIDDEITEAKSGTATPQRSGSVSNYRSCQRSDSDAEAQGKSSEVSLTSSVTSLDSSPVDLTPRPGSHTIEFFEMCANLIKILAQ
# T1 sequence (Q9Y478 whole entry partner): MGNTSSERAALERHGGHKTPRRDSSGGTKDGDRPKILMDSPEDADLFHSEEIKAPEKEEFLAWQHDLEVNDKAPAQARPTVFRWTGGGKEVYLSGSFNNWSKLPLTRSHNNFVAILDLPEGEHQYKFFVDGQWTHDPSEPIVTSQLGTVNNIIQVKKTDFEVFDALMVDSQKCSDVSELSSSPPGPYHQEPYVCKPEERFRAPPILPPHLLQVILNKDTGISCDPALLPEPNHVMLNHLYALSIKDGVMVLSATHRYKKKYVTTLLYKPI
# T1 sequence (P54619 whole entry partner): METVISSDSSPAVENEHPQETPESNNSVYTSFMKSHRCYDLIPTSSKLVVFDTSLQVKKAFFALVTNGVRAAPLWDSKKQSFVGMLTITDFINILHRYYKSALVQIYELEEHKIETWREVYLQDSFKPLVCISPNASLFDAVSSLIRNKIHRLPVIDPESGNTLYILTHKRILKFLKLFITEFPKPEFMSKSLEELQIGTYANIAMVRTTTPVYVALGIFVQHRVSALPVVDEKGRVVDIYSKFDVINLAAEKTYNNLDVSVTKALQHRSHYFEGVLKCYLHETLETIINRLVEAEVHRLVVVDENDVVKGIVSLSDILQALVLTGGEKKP
# Description: (§1) The analysis of kinase activity described here was performed using LabChip (Caliper Life Sciences), specifically the Caliper LC3000 and the EZ Reader II instruments.
# (§2) The kinase assay used measures the conversion of a fluorescent peptide (substrate) to a phosphorylated product. The reaction mixture, in a microplate well, is introduced by a capillary in a chip where the non-phosphorylated substrate and the phosphorylated product are separated by […]. The intensity of the fluorescent signal over time is related to the reaction progress. The phosphorylated product migrates quicker than the non-phosphorylated substrate and the signals of the two forms of the peptide appear as differentiated peaks. The Caliper determines the peak height and calculates the ratio of product to the peak sum (P/(P+S)). This value is used to compare wells with compounds and wells with controls and thus determine the % of inhibition for the given product.
# (§3) The followings kinases were used for the enzymatic inhibition studies, between brackets the value of the Michaelis-Menten constant, Km, of the ATP (Adenosine triphosphate) for each kinase, in μM: obtained from Carna Biosciences: MAPKAPK2 (4.6), AurA (3.6), AurB (5), PKCζ (3.8), RSK1 (23.3), PRAK (5), Erk1 (33.4), PKD2 (32.1), CK1d (16.3), CHK1 (33), ABL (61.7), FYN (36), LYNa (17), CHK2 (57.8), MET (79.5), LCK (28.5), SRC (38), GSK3β (7.3), Erk2 (62.1), PKACα (1.7), AKT2 (186.1), INSR (871.8), p38a (396.5), AKT1(48), MSK1 (21.2), PKCβ2 (84.8), ROCK2 (3.3), PIM2 (4.9), AMPK (38.6), KDR (164.8), IRAK4 (196.5), SGK1 (121.8), SYK (33.5); obtained from Invitrogen: CDK2 (57.6), BTK (123), HGK (80); obtained from Upstate: MST2 (36.6), PKGα (16), PAK2 (1.9), IGF1R (320), FGFR1 (171), MARK1 (33), CAMK2δ (22.4), c-TAK1 (66), DYRK1a (18.1), CaMK4 (3.9), FLT3 (350), c-Raf (6.2), P70S6K (95).
# (§4) The compounds were dissolved in 100% DMSO and were diluted at 25 times the final concentration desired for the assay. In the case of the determination of Cl50, serial dilutions were made to reach eight concentrations and give rise to the inhibition curve. 1 μL of each concentration is transferred, in duplicate to a 384-well microplate. 12 μL of enzymatic buffer is added to each well containing purified kinase (several suppliers as indicated above), 100 mM HEPES, pH 7.5, 1 mM DTT (Calbiochem), 0.002% Brij-35 (Sigma) and also in presence of 10 mM MgCl2 as cofactor, except for INSR and IRAK4 wherein 10 mM MnCl2 is used instead of MgCl2. For the kinases CAMK26 and CAMK4, 1 mM CaCl2 and 6.7 μg/mL of calmodulin are also added. For KDR kinase, 0.05% of the CHAPSO detergent is added. For the c-Raf kinase, 10 mM MnCl2 is added. For PKCβ2 0.02 μg/mL of PS/PMA is added. For PKGα se 10 μM of cGMP (cyclic guanosine monophosphate) is added. The compound and the enzyme are left for 15 minutes preincubation and, then, the following are added to each well: 12 μL of peptide buffer/ATP containing 100 mM HEPES, pH 7.5, 1.5 μM peptide marker with fluorescein (specific for the corresponding kinase), ATP (at concentration KM), and 0.002% Brij-35 to start the reaction. Generally, the reactions are incubated for 1-1.5 h at ambient temperature to obtain an adequate conversion (15-40%) of the peptide to the phosphorylated product. The reactions were ended by the addition of 45 μL of buffer containing 0 mM EDTA. The microplates were read by the LabChip 3000 using a 12-channel LabChip. The P/(P+S) values were obtained as described above and the CI50 curves were generated using XIfit. […]
# MST2 = target: T2, MST2 (Homo sapiens, UniProt Q13188); experiment: LabChip (Caliper) kinase assay, MST2
# T2 construct: purchased Upstate
# T2 sequence (Q13188 1-491): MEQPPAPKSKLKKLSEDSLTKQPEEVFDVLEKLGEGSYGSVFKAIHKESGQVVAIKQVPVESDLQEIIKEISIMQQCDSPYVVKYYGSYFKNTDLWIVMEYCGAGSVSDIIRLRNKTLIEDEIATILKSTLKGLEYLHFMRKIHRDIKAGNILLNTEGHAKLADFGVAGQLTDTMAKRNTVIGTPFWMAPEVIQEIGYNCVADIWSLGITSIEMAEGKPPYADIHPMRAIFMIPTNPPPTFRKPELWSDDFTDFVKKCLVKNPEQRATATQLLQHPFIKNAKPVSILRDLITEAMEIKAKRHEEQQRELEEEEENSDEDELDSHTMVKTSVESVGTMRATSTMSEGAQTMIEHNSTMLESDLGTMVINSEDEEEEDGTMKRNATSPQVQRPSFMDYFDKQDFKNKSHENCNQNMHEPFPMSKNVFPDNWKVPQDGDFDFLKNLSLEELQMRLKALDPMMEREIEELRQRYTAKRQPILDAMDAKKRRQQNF
# Description: as §1, §2, §3, §4
# Erk2 = target: T3, Erk2 (Homo sapiens, UniProt P28482); experiment: LabChip (Caliper) kinase assay, Erk2
# T3 construct: purchased Carna Biosciences
# T3 sequence (P28482 whole entry): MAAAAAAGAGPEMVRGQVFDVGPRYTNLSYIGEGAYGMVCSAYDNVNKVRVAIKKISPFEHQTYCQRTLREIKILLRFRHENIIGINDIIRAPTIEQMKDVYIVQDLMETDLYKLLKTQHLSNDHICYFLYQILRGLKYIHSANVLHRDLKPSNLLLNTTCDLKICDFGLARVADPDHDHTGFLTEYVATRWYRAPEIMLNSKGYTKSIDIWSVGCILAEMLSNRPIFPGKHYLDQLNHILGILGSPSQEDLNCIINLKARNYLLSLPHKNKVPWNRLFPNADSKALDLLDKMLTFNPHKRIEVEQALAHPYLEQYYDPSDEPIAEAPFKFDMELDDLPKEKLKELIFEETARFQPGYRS
# Description: as §1, §2, §3, §4
Structure (SMILES),inhibition at 0.01 µM (AmpKa1),inhibition at 0.1 µM (AmpKa1),inhibition at 0.01 µM (MST2),inhibition at 0.1 µM (MST2),inhibition at 0.01 µM (Erk2),inhibition at 0.1 µM (Erk2)
"C[C@@H]1O[C@@H](n2c3ccccc3c3c4c(c5c6ccccc6[nH]c5c32)C(=O)NC4=O)C[C@H](O)[C@H]1O [formula (IV), N^13-1′-β-L-olivosylarcyriaflavin]",3%,21%,2%,15%,-2%,-3%
"C[C@H]1O[C@@H](n2c3ccccc3c3c4c(c5c6ccccc6[nH]c5c32)CNC4=O)C[C@@H](O)[C@@H]1O [formula (XV), N^13-1′-β-D-olivosyl-k252c]",-3%,9%,12%,78%,-4%,-2%
"C[C@@H]1O[C@@H](n2c3ccccc3c3c4c(c5c6ccccc6[nH]c5c32)CNC4=O)[C@H](O)[C@H](O)[C@H]1O [formula (XII), N^13-1′-β-L-rhamnosyl-k252c]",1%,7%,4%,19%,-3%,-1%
"C[C@@H]1O[C@@H](n2c3ccccc3c3c4c(c5c6ccccc6[nH]c5c32)CNC4=O)C[C@@H](O)[C@H]1O [formula (XIV), N^13-1′-β-L-digitoxosyl-k252c]",2%,1%,7%,34%,-4%,0%
"C[C@@H]1O[C@@H](n2c3ccccc3c3c4c(c5c6ccccc6[nH]c5c32)CNC4=O)C[C@H](O)[C@H]1O [formula (XIII), N^13-1′-β-L-olivosyl-k252c]",-3%,10%,4%,33%,-4%,3%
"C[C@@H]1O[C@@H](n2c3ccccc3c3c4c(c5c6ccccc6[nH]c5c32)C(=O)NC4=O)C[C@@H](O)[C@H]1O [formula (V), N^13-1′-β-L-digitoxosylarcyriaflavin]",8%,28%,16%,54%,-4%,0%
"C[C@@H]1O[C@@H](n2c3ccccc3c3c4c(c5c6ccccc6[nH]c5c32)C(=O)NC4=O)[C@H](O)[C@H](O)[C@H]1O [formula (III), N^13-1′-β-L-rhamnosylarcyriaflavin]",1%,11%,2%,10%,-6%,-4%
"C[C@H]1O[C@@H](n2c3ccccc3c3c4c(c5c6ccccc6[nH]c5c32)C(=O)NC4=O)C[C@@H](O)[C@@H]1O [formula (VI), N^13-1′-β-D-olivosylarcyriaflavin]",5%,33%,13%,65%,-1%,30%
